{"source": "patent US8563578B2", "about": "“Antitumor properties of NO modified protease inhibitors” (Onconox APS, priority 2008, dated 2013)", "key": {"B16 cells [1]": {"test_system": "B16 cells", "assay": "Autophagy detection by acridin orange staining, B16", "format": "cell-based, mouse", "settings": "18.8 μM, 24 h", "description": "Vital dye acridin orange (AO) was used for detection of autophagy. The intensity of red fluorescence correlates with acidity and volume of present autophagic organelles (Kanzawa et al. 2004). Assay was performed as follows: the cells were cultured in 6-well plate (2×10^5/well) 24 h in the presence of the drug, detached with trypsin and stained with 1 μg/ml AO in RPMI without phenol red for 15 min at RT. After the end of incubation period cells were washed and resuspended in PBS. Green and red fluorescence emission was measured with a FACSCalibur and analyzed using CellQuest software.\n(§1) FIG. 4. […] Results are calculated as indicated in materials and methods and presented as mean±SD from representative of three independent experiment (*p <0.05). […] After 24 h of cultivation without or with drugs, cells were stained with AO orange (B) or PI (C) and analyzed by flow cytometry. The data are presented as mean±SD from three independent experiments. *p<0.05, refers to untreated cultures. […] Cells were incubated with 18.8 μM of Sag or Saq-NO2 for 24 h. After that, the drugs were either removed or not from the cells and incubated for additional 24 h. Cell viability was determined by CV test after 24 and 48 h of incubation (right panels). The data are presented as mean±SD from three independent experiments. *p<0.05, refers to untreated cultures."}, "B16 cells [2]": {"test_system": "B16 cells", "assay": "LDH release assay, B16", "format": "cell-based", "settings": "for LDH release (cytotoxicity, necrosis): 24 h, different doses", "description": "Reduction of 3-4,5-dimethylthiazol-2-yl)-2,5-diphenyltetrazolium bromide (MTT) to formazan depends on mitochondrial activity of cultured cells, absorption of crystal violet dye correlates with the number of adherent, live cells, while the release of cytosolic lactate dehydrogenase (LDH) indicates the disruption of membrane integrity caracteristic for necrotic cells. […] Mitohondrial-dependent production of formazan and intensity of absorbed crystal violet by adherent cells were assessed by an automated microplate reader at 570 nm, while the pyruvate-mediated conversion of 2,4-dinitrophenylhydrazine into visible hydrazone precipitate in LDH assay was measured at 492 nm. The % of cytotoxicity as indicated by LDH release was calculated as: (E−C)/(T−C)×100, where E is the experimental absorbance of cell cultures, C is the control absorbance of cell-free culture medium, and T is the absorbance corresponding to the maximal (100%) LDH release of Triton-lysed cells.\nas §1"}, "C6 cells": {"test_system": "C6 cells", "assay": "Cell cycle / apoptosis by propidium iodide flow cytometry, C6", "format": "cell-based, rat", "settings": "18.8 μM, 24 h", "description": "Apoptotic cell death was assessed by flow cytometry analysis of DNA fragmentation in cells stained with DNA-binding dye propidium iodide (PI). Following a 24 h incubation in 6-well plate, cells (2×10^5/well) were detached with trypsin, washed and fixed in 70% ethanol at 4° C. for 30 min. After washing in PBS, cells were resuspended in PBS containing 1 mg/ml RNase and propidium iodide (40 μg/ml) and kept at 37° C. in the dark for 30 min. Red fluorescence was analyzed with FACSCalibur flow cytometer (BD, Heidelberg, Germany) and distribution of cells among cell cycle phases was determined with Cell Quest Pro software (BD). Hypodiploid cells in sub-G0/G1 compartment were considered apoptotic.\nas §1"}, "Tumor cells": {"test_system": "Tumor cells", "assay": "Viability recovery after drug withdrawal (CV test)", "format": "cell-based", "settings": "18.8 μM for 24 h, drug removed, additional 24 h", "description": "Reduction of 3-4,5-dimethylthiazol-2-yl)-2,5-diphenyltetrazolium bromide (MTT) to formazan depends on mitochondrial activity of cultured cells, absorption of crystal violet dye correlates with the number of adherent, live cells, while the release of cytosolic lactate dehydrogenase (LDH) indicates the disruption of membrane integrity caracteristic for necrotic cells. The cells were seeded in flat-bottom 96-well plates in a final volume of 200 μl of culture medium containing different agents, and the assays were performed after 24 h incubation exactly as previously described (Mijatovic et al. 2004, Decker et al., 1998). Mitohondrial-dependent production of formazan and intensity of absorbed crystal violet by adherent cells were assessed by an automated microplate reader at 570 nm, while the pyruvate-mediated conversion of 2,4-dinitrophenylhydrazine into visible hydrazone precipitate in LDH assay was measured at 492 nm. The % of cytotoxicity as indicated by LDH release was calculated as: (E−C)/(T−C)×100, where E is the experimental absorbance of cell cultures, C is the control absorbance of cell-free culture medium, and T is the absorbance corresponding to the maximal (100%) LDH release of Triton-lysed cells.\nFIG. 4. […] Results are calculated as indicated in materials and methods and presented as mean±SD from representative of three independent experiment (*p <0.05). […]"}, "B16 cells [3]": {"test_system": "B16 cells", "assay": "Melanin determination, B16", "format": "cell-based, mouse", "settings": "18.8 μM, 24 h", "description": "Tyrosinase activity was determined by measuring the rate of oxidation of L-DOPA^34. Briefly, sub-confluent cultures in 6-well plate were lysed in 100 μl phosphate buffer pH 6.8-1% Triton X-100 and than centrifuged at 10000 rpm for 5 min. 40 μl of each extract was mixed with 100 μl of L-DOPA substrate solution (2 mg/ml). Enzymatic reaction was carried out at 37° C. and the absorbance at 570 nm was read every 10 min for at least 1 h. The final activity was corrected by the total amount of protein estimated by Bradford assay. For melanin determination cells were incubated in 6 well plate for 24 h, trypsinized, counted and than lysed in 100 μl of 1M NaOH. 400 μl of distilled water was added and samples were incubated at 60° C. for 1 h. Thereafter, absorbance of dissolved dye was measured at 492 nm.\nFIG. 5. […] Cell morphology was assessed by light microscopy (A). Markers of cell differentiation of C6 and B16 cells, galactocerebroside, GFAP and MBP were determined by cELISA and melanin and tyrosinase activity were determined as described in material and methods (B). Cyclin D3 and p53 expression were evaluated by cELISA (C, upper panels), immunocytochemistry (C, middle panel) and Western blot (C, lower panel). The results were presented as mean±SD from three independent experiments. *p<0.05, refers to untreated cultures."}}}
{"smiles": "CC(C)(C)NC(=O)[C@@H]1C[C@@H]2CCCC[C@@H]2CN1C[C@@H](O)[C@H](Cc1ccccc1)NC(=O)[C@H](CC(N)=O)NC(=O)c1ccc2ccccc2n1", "note": "[Saq, Saquinavir, reference compound]", "values": [{"measurement": "amount of acidic vesicles in the cytoplasm (autophagy)", "setting": "B16 cells [1]", "value": "absence of autophagia"}, {"measurement": "LDH release (cytotoxicity, necrosis)", "setting": "B16 cells [2]", "value": "induced LDH release in both cell lines in a dose-dependent way"}, {"measurement": "cell cycle distribution", "setting": "C6 cells", "value": "did not show considerably different distribution from control"}, {"measurement": "recovery of viability after drug withdrawal", "setting": "Tumor cells", "value": "mainly restored the viability"}, {"measurement": "melanin content", "setting": "B16 cells [3]", "value": "increased"}]}
{"smiles": "CC(C)(C)NC(=O)[C@@H]1C[C@@H]2CCCC[C@@H]2CN1C[C@@H](O[N+](=O)[O-])[C@H](Cc1ccccc1)NC(=O)[C@H](CC(N)=O)NC(=O)c1ccc2ccccc2n1", "note": "[Saq-NO2, nitric ester of Saquinavir]", "values": [{"measurement": "amount of acidic vesicles in the cytoplasm (autophagy)", "setting": "B16 cells [1]", "value": "absence of autophagia"}, {"measurement": "LDH release (cytotoxicity, necrosis)", "setting": "B16 cells [2]", "value": "induced significant cytoxicity even at lowest dose tested"}, {"measurement": "LDH release (cytotoxicity, necrosis)", "setting": "B16 cells [2]; listed as Saq-NO", "value": "dose-dependent LDH release was detected upon all tested doses"}, {"measurement": "cytotoxicity at 18.8 µM", "setting": "B16 cells [2]; Mus musculus, 18.8 μM, 18 h of exposure, control 2.3%", "value": 6.2, "unit": "%"}, {"measurement": "cell cycle distribution", "setting": "C6 cells", "value": "particularly marked arrest in G0/G1"}, {"measurement": "percentage of cells in subG compartment (apoptosis)", "setting": "C6 cells", "value": "slightly increased"}, {"measurement": "recovery of viability after drug withdrawal", "setting": "Tumor cells", "value": "very mild recovering"}, {"measurement": "melanin content", "setting": "B16 cells [3]", "value": "unchanged"}]}
